For 22 compounds, IC50 results are on record in patent publication US8148391B2 (Cephalon, Inc., priority 2006, dated 2012).

Assay [1] concerns the target T1, baculovirus-expressed ALK (Homo sapiens, UniProt Q9UM73).
T1 construct: host or cells: baculovirus expression system
Nature of the assay: ALK Kinase Assay (ELISA-type, time-resolved fluorescence). Type of assay: biochemical. The method, boiled down:
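Plates coated with phospholipase C-γ substrate (10 μg/mL in TBS); reaction started with 30 ng/ml ALK and run 15 min at 37° C. Phosphorylated substrate detected with Eu-N1-labeled PT66 antibody. IC50 from sigmoidal variable-slope fit of percent inhibition vs log concentration.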

Assay [2] has as its target T2, c-Met (cytoplasmic domain) (Homo sapiens, UniProt P08581).
T2 construct: 10 ng/mL c-Met (cytoplasmic domain, Invitrogen Corporation #PV3143); purchased Invitrogen Corporation PV3143
Nature of the assay: c-Met Kinase Assay (same methods as for ALK, with modifications). The class given is biochemical. In short, it runs like this: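 Plates were coated with phospholipase C-γ substrate (10 μg/mL) in TBS, and the reaction was started with 10 ng/mL c-Met cytoplasmic domain and run 15 min at 37 °C. Phosphoproduct was detected with Eu-N1-labelled PT66 antibody. IC50 came from a variable-slope sigmoidal fit of percent inhibition vs log concentration.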

[3] abbreviates: ALK kinase inhibition, 1 μM ATP, read-out: ALK Activity.
Setting [4] is: c-Met kinase inhibition, 1 μM ATP, read-out: cMet Activity.
Setting [5] is: 1 μM ATP (Km level), read-out: ALK Activity (ALK Kinase Inhibition, IC50).
[6] abbreviates: 1 μM ATP (Km level), read-out: cMet Activity (c-Met Kinase Inhibition, IC50).
The mark [7] stands for this setting: 1 μM ATP (Km level), 30 ng/ml ALK, 37° C., 15 minutes, read-out: ALK Activity (ALK kinase inhibition, IC50 class).
[8] abbreviates: 1 μM ATP (Km level), 10 ng/mL c-Met, read-out: cMet Activity (c-Met kinase inhibition, IC50 class).
[9] abbreviates: ALK kinase inhibition, 1 μM ATP (Km level), read-out: ALK Activity.
Where [10] appears, read: c-Met kinase inhibition, 1 μM ATP (Km level), read-out: cMet Activity.

Where two headings read alike, the source gives them in different places.

T2 sequence (P08581 956-1390 limits assumed): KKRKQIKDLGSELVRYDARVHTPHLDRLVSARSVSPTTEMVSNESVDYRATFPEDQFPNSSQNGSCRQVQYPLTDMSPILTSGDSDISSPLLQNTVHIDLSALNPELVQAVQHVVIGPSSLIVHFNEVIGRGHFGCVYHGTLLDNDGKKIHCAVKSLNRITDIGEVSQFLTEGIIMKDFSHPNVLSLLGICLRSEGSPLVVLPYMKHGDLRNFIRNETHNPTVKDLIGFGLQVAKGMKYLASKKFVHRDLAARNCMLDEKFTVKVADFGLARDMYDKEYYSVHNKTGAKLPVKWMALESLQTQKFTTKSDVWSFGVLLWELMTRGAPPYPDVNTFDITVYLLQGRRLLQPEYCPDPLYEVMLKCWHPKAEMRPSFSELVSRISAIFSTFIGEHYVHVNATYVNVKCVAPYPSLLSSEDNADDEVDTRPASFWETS
T1 sequence (Q9UM73 19-1620): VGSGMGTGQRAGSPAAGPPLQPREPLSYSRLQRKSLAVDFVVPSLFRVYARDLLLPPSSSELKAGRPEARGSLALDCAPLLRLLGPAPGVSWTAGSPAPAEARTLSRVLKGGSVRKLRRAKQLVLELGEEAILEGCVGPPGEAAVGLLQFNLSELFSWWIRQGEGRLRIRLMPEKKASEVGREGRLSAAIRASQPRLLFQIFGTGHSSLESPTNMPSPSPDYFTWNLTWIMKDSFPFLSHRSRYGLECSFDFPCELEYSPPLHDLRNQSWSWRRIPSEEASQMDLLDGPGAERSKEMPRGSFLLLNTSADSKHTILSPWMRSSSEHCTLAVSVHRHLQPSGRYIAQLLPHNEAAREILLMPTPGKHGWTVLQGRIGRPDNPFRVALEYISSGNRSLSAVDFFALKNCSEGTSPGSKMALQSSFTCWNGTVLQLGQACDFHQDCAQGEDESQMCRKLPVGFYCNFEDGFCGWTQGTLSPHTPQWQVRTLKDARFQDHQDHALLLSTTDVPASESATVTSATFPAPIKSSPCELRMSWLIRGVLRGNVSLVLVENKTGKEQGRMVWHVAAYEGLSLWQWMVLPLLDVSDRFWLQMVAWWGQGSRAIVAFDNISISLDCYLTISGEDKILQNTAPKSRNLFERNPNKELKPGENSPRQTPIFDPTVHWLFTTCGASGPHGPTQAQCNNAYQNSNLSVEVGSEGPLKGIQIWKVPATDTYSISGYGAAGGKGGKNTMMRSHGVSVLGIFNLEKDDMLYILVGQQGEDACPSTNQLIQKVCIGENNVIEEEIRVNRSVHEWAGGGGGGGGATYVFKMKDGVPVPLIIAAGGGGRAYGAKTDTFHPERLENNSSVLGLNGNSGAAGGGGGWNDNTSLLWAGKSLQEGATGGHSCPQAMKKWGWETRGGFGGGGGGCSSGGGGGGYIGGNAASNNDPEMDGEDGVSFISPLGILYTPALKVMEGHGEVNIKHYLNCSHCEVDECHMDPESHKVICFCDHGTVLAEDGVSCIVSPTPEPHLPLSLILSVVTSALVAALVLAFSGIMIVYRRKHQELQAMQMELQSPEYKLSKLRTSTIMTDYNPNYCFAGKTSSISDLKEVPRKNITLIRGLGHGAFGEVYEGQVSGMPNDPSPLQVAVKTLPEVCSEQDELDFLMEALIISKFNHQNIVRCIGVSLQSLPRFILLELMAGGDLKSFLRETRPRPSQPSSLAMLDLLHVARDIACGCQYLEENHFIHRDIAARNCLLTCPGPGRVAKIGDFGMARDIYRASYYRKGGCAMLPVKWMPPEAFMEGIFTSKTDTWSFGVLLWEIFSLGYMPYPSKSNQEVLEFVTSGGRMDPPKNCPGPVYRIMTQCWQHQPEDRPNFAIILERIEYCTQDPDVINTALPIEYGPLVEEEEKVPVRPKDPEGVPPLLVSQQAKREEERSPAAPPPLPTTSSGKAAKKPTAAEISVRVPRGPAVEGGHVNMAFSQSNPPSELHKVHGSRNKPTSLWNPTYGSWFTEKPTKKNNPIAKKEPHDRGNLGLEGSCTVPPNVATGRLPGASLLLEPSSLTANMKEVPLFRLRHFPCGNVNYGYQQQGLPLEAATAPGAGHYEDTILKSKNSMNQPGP

Take `C#CCNC(=O)c1cccc(F)c1Nc1nc(Nc2ccc3c(c2)N(C(C)=O)CCCC3)ncc1Cl` [Example 1490, 2-[2-(1-Acetyl-2,3,4,5-tetrahydro-1H-benzo[b]azepin-8-ylamino)-5-chloro-pyrimidin-4-ylamino]-3-fluoro-N-prop-2-ynyl-benzamide]: the IC50 is 100 to 1000 nM in assay [1] (setting [3]) and below 100 nM in assay [2] (setting [4]).

`COCCN1CCc2ccc(Nc3ncc(Cl)c(Nc4ccccc4-c4nccn4CCOC)n3)cc2CC1` [Example 981, 5-Chloro-N*4*-{2-[1-(2-methoxy-ethyl)-1H-imidazol-2-yl]-phenyl}-N*2*-[3-(2-methoxy-ethyl)-2,3,4,5-tetrahydro-1H-benzo[d]azepin-7-yl]-pyrimidine-2,4-diamine]: the IC50 in assay [1] (setting [5]) lay in the range of 100 to 1000 nM; in assay [2] (setting [6]), 1000 to 10000 nM.

Take `COCCN1CCc2ccc(Nc3ncc(Cl)c(Nc4c(F)cccc4OCC4CCOC4)n3)cc2CC1` (centres unmarked) [Example 1275, 5-Chloro-N(4)-[2-fluoro-6-(tetrahydro-furan-3-ylmethoxy)-phenyl]-N(2)-[3-(2-methoxy-ethyl)-2,3,4,5-tetrahydro-1H-3-benzazepin-7-yl]-pyrimidine-2,4-diamine]: the IC50 in assay [1] (setting [7]) and in assay [2] (setting [8]) was 1000 to 10000 nM each time.

Consider `COCCN1CCc2ccc(Nc3ncc(Cl)c(Nc4ccccc4Cl)n3)cc2CC1` [Example 1376, 5-Chloro-N(4)-(2-chloro-phenyl)-N(2)-[3-(2-methoxy-ethyl)-2,3,4,5-tetrahydro-1H-benzo[d]azepin-7-yl]-pyrimidine-2,4-diamine], for which the values for the IC50 in assay [1] (setting [7]) and in assay [2] (setting [8]) were below 100 nM and 100 to 1000 nM, respectively.

In the case of `CCN1CCNc2cc(Nc3ncc(Cl)c(Nc4c(F)cccc4C(=O)NC)n3)ccc2C1=O` [Example 1454, 2-[5-Chloro-2-(4-ethyl-5-oxo-2,3,4,5-tetrahydro-1H-benzo[e][1,4]diazepin-8-ylamino)-pyrimidin-4-ylamino]-3-fluoro-N-methyl-benzamide], the results for the IC50 in assay [1] (setting [3]) and in assay [2] (setting [4]) were 100 to 1000 nM and below 100 nM, respectively.

Take `COc1cc2c(cc1Nc1ncc(Cl)c(Nc3ccc(N4CCN(C)CC4)cc3OC)n1)CCNC(=O)C2` [Example 778, 7-{5-Chloro-4-[2-methoxy-4-(4-methyl-piperazin-1-yl)-phenylamino]-pyrimidin-2-ylamino}-8-methoxy-1,3,4,5-tetrahydro-benzo[d]azepin-2-one]: the IC50 in assay [1] (setting [5]) was below 100 nM; in assay [2] (setting [6]) it was above 10000 nM.

In the case of `COc1cc2c(cc1Nc1ncc(Cl)c(N[C@H]3[C@@H](C(N)=O)[C@@H]4C=C[C@H]3C4)n1)CCN(CCN1CCOCC1)CC2` [Example 1529, (1S,2S,3R,4R)-3-{5-Chloro-2-[8-methoxy-3-(2-morpholin-4-yl-ethyl)-2,3,4,5-tetrahydro-1H-3-benzazepin-7-ylamino]-pyrimidin-4-ylamino}-bicyclo[2.2.1]hept-5-ene-2-carboxylic acid amide], the figures for the IC50 in assay [1] (setting [3]) and in assay [2] (setting [4]) were below 100 nM and above 10000 nM, respectively.

As for `CC1(C)CCC(=O)Nc2ccc(Nc3ncc(Cl)c(Nc4ccc(N5CCC(C(=O)O)CC5)cc4-n4cccn4)n3)cc21` [Example 629, 1-{4-[5-Chloro-2-(5,5-dimethyl-2-oxo-2,3,4,5-tetrahydro-1H-benzo[b]azepin-7-ylamino)-pyrimidin-4-ylamino]-3-pyrazol-1-yl-phenyl}-piperidine-4-carboxylic acid], the IC50 in assay [1] (setting [5]) was below 100 nM; in assay [2] (setting [6]), 1000 to 10000 nM.

On to `COc1cc2c(cc1Nc1ncc(Cl)c(Nc3ccc[nH]c3=O)n1)CCN(CC(=O)N(C)C)CC2` [Example 1186, 2-{7-[5-Chloro-4-(2-oxo-1,2-dihydro-pyridin-3-ylamino)-pyrimidin-2-ylamino]-8-methoxy-1,2,4,5-tetrahydro-benzo[d]azepin-3-yl}-N,N-dimethyl-acetamide], for which the IC50 was below 100 nM in assay [1] (setting [7]) and above 10000 nM in assay [2] (setting [8]).

Take `CCCCNC(=O)c1ccccc1Nc1nc(Nc2ccc3c(c2)CCN(CCOC)CC3)ncc1Cl` [Example 1028, N-Butyl-2-{5-chloro-2-[3-(2-methoxy-ethyl)-2,3,4,5-tetrahydro-1H-benzo[d]azepin-7-ylamino]-pyrimidin-4-ylamino}-benzamide]: the IC50 in assay [1] (setting [7]) was below 100 nM; in assay [2] (setting [8]) it was 100 to 1000 nM.

`COCCOC(=O)c1ccccc1Nc1nc(Nc2cc3c(cc2OC)CCN(CCO)CC3)ncc1Cl` [Example 1549, 2-{5-Chloro-2-[3-(2-hydroxy-ethyl)-8-methoxy-2,3,4,5-tetrahydro-1H-3-benzazepin-7-ylamino]-pyrimidin-4-ylamino}-benzoic acid 2-methoxy-ethyl ester]: the results for the IC50 in assay [1] (setting [3]) and in assay [2] (setting [4]) were below 100 nM and above 10000 nM, respectively.

Regarding `CCN1C(=O)C(NC(=O)C2CC2)CCc2c1ccc(Nc1ncc(Cl)c(Nc3ccccc3S(=O)(=O)N(C)C)n1)c2OC` (centres unmarked) [Example 1359, Cyclopropanecarboxylic acid {7-[5-chloro-4-(2-dimethylsulfamoyl-phenylamino)-pyrimidin-2-ylamino]-1-ethyl-6-methoxy-2-oxo-2,3,4,5-tetrahydro-1H-benzo[b]azepin-3-yl}-amide], the IC50 in assay [1] (setting [7]) is below 100 nM; in assay [2] (setting [8]), above 10000 nM.

Regarding `CN1C(=O)CCC(C)(C)c2cc(Nc3ncc(Cl)c(N[C@@H]4CCCC[C@H]4NS(C)(=O)=O)n3)ccc21` [Example 385, N-{(1R,2R)-2-[5-Chloro-2-(1,5,5-trimethyl-2-oxo-2,3,4,5-tetrahydro-1H-benzo[b]azepin-7-ylamino)-pyrimidin-4-ylamino]-cyclohexyl}-methanesulfonamide], the IC50 is below 100 nM in assay [1] (setting [9]) and 100 to 1000 nM in assay [2] (setting [10]).

`COc1cc2c(cc1Nc1ncc(Cl)c(Nc3ccccc3-n3cccn3)n1)CCN(CC(=O)N(C)C)CC2` [Example 1320, 2-{7-[5-Chloro-4-(2-pyrazol-1-yl-phenylamino)-pyrimidin-2-ylamino]-8-methoxy-1,2,4,5-tetrahydro-benzo[d]azepin-3-yl}-N,N-dimethyl-acetamide]: the IC50 in assay [1] (setting [7]) is below 100 nM; in assay [2] (setting [8]), above 10000 nM.

With `CNC(=O)CN1CCc2ccc(Nc3ncc(Cl)c(Nc4ccc(N5CCOCC5)cc4OC)n3)cc2CC1` [Example 1127, 2-{7-[5-Chloro-4-(2-methoxy-4-morpholin-4-yl-phenylamino)-pyrimidin-2-ylamino]-1,2,4,5-tetrahydro-benzo[d]azepin-3-yl}-N-methyl-acetamide], the IC50 in assay [1] (setting [7]) is below 100 nM; in assay [2] (setting [8]), 1000 to 10000 nM.

`CCCNC(=O)c1ccccc1Nc1nc(Nc2cc3c(cc2OC)CCN(CCOC)CC3)ncc1Cl` [Example 1026, 2-{5-Chloro-2-[8-methoxy-3-(2-methoxy-ethyl)-2,3,4,5-tetrahydro-1H-benzo[d]azepin-7-ylamino]-pyrimidin-4-ylamino}-N-propyl-benzamide]: the IC50 in assay [1] (setting [7]) is below 100 nM; in assay [2] (setting [8]), above 10000 nM.

`CCN1C(=O)CCC(C)(C)c2cc(Nc3ncc(Cl)c(N[C@@H]4CCCC[C@H]4NS(C)(=O)=O)n3)ccc21` [Example 388, N-{(1R,2R)-2-[5-Chloro-2-(1-ethyl-5,5-dimethyl-2-oxo-2,3,4,5-tetrahydro-1H-benzo[b]azepin-7-ylamino)-pyrimidin-4-ylamino]-cyclohexyl}-methanesulfonamide]: the IC50 is below 100 nM in assay [1] (setting [9]) and 1000 to 10000 nM in assay [2] (setting [10]).

Take `CCN1CCN(CC)c2cc(Nc3ncc(Cl)c(Nc4ccccc4-n4cccn4)n3)ccc2C1` [Example 725, 5-Chloro-N(2)-(1,4-diethyl-2,3,4,5-tetrahydro-1H-benzo[e][1,4]diazepin-8-yl)-N(4)-(2-pyrazol-1-yl-phenyl)-pyrimidine-2,4-diamine]: the IC50 was below 100 nM in assay [1] (setting [5]) and 100 to 1000 nM in assay [2] (setting [6]).

For `CNC(=O)c1cccc(F)c1Nc1nc(Nc2ccc3c(c2)-n2c(C)cnc2CCC3)ncc1Cl` [Example 1843, 2-[5-Chloro-2-(1-methyl-5,6-dihydro-4H-3,10b-diaza-benzo[e]azulen-9-ylamino)-pyrimidin-4-ylamino]-3-fluoro-N-methyl-benzamide], the IC50 in assay [1] (setting [3]) lay within 100 to 1000 nM; in assay [2] (setting [4]) it was 1000 to 10000 nM.

Regarding `CNC(=O)c1ccccc1Nc1nc(Nc2cc3c(cc2OC)CC(=O)NCC3)ncc1Cl` [Example 264, 2-[5-Chloro-2-(8-methoxy-2-oxo-2,3,4,5-tetrahydro-1H-benzo[d]azepin-7-ylamino)-pyrimidin-4-ylamino]-N-methyl-benzamide], the IC50 in assay [1] (setting [9]) is below 100 nM; in assay [2] (setting [10]), 1000 to 10000 nM.

For the compound `CN1CCN(C(=O)n2ccnc2)Cc2ccc(Nc3ncc(Cl)c(N[C@@H]4CCCC[C@H]4NS(C)(=O)=O)n3)cc21` [Example 482, N-((1R,2R)-2-{5-Chloro-2-[4-(imidazole-1-carbonyl)-1-methyl-2,3,4,5-tetrahydro-1H-benzo[e][1,4]diazepin-8-ylamino]-pyrimidin-4-ylamino}-cyclohexyl)-methanesulfonamide], the results for the IC50 in assay [1] (setting [9]) and in assay [2] (setting [10]) were below 100 nM and 100 to 1000 nM, respectively.

With `C#CCNC(=O)c1cccc(F)c1Nc1nc(Nc2ccc3c(c2)NC(=O)CCC3)ncc1Cl` [Example 1404, 2-[5-Chloro-2-(2-oxo-2,3,4,5-tetrahydro-1H-benzo[b]azepin-8-ylamino)-pyrimidin-4-ylamino]-3-fluoro-N-prop-2-ynyl-benzamide], the IC50 in assay [1] (setting [7]) and in assay [2] (setting [8]) was 100 to 1000 nM each time.
